What was measured:
[1] = target: T1, human Fam20A−Fam20C complex (Homo sapiens, UniProt Q96MK3); assay: X-ray crystal structure, […] Å; assay type: binding; conditions: 0.25 mM ATP; ATP-1 bound to Fam20A in inverted orientation; ATP-2 bound to Fam20A at a second site, possibly a crystallization artifact
T1 construct: Fam20A residues 69-529 and Fam20C residues 63-584, High Five cells, His6-MBP tags removed with TEV; heterodimer in crystal; with Extracellular serine/threonine protein kinase FAM20C
T1 sequence (Q96MK3 69-529): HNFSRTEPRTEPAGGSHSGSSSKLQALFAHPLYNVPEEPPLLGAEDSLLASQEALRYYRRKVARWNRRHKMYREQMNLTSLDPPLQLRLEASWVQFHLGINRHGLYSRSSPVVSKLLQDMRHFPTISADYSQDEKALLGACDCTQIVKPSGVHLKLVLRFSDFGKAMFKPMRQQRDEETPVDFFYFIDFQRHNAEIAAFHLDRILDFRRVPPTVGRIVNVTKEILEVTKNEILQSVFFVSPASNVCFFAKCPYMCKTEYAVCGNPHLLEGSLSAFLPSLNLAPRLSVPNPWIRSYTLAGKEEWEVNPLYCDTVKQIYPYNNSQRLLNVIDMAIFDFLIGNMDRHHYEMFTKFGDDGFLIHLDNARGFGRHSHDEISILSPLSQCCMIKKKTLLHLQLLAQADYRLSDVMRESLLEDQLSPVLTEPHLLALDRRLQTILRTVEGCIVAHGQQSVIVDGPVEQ
T1 sequence (Q8IXL6 63-584 partner): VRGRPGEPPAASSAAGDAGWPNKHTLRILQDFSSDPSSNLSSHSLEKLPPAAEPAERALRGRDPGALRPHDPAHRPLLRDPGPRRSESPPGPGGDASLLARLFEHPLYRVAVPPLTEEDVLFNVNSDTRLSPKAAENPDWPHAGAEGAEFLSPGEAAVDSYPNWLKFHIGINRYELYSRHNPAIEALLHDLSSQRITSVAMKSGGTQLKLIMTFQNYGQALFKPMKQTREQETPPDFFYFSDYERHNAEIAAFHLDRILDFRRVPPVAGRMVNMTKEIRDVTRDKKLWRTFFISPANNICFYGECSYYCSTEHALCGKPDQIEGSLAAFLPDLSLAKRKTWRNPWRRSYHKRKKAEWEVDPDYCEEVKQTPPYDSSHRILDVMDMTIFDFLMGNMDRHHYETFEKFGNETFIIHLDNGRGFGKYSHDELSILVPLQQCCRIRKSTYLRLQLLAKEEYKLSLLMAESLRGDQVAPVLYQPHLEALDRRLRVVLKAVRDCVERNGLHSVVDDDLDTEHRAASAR

[2] = target: T2, Fam20A−drFam20C complex (Homo sapiens, UniProt Q96MK3); assay: X-ray crystal structure, […] Å; assay type: binding; conditions: 0.25 mM ATP; ATP-1 bound to Fam20A in inverted orientation
T2 construct: human Fam20A residues 69-529 with zebrafish Fam20C residues 124-560, High Five cells, His6-MBP tags removed with TEV; heterotetramer; with Extracellular serine/threonine protein kinase FAM20C (Danio rerio)
T2 sequence (Q96MK3 69-529): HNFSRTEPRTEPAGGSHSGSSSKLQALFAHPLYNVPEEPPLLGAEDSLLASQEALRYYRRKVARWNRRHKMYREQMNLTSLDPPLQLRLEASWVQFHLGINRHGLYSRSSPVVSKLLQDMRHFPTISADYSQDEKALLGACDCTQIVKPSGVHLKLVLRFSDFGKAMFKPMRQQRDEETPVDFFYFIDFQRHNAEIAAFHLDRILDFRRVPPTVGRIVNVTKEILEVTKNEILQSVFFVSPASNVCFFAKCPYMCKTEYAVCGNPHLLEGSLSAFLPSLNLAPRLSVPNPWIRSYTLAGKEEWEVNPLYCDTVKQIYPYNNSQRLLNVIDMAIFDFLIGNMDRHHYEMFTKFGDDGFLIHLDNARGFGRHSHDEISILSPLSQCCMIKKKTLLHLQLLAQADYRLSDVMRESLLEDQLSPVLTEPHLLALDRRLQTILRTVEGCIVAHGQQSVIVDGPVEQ
T2 sequence (E7FBB8 26-545 partner): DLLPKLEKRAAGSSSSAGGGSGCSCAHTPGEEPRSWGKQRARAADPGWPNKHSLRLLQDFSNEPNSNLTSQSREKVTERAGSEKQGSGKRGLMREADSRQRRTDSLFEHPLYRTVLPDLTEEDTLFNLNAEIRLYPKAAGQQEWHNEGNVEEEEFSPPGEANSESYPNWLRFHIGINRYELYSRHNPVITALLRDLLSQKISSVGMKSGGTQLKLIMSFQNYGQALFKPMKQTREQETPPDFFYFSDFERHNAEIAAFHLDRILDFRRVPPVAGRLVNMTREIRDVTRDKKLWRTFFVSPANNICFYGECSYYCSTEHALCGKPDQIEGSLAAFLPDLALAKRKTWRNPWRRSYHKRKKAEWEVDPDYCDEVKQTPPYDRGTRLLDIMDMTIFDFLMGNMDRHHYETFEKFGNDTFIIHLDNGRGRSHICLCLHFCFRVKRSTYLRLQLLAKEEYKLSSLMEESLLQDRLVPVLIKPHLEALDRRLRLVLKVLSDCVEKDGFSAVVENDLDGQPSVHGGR

[3] = target: T3, aqFam20 (Amphimedon queenslandica, UniProt A0A1X7UVU4); assay: […] incorporation from [γ-32P]ATP, Sep-Pak C18, scintillation counting; assay type: biochemical; conditions: 100 uM Gal-Xyl-benzyl, 100 uM ATP, 10 mM MnCl2, pH 7.5, 30 °C
T3 construct: gene 100636703; residues 31-418, His6-MBP fusion secreted from High Five insect cells, cloned from cDNA library; monomer
T3 sequence (A0A1X7UVU4 entry or part of it): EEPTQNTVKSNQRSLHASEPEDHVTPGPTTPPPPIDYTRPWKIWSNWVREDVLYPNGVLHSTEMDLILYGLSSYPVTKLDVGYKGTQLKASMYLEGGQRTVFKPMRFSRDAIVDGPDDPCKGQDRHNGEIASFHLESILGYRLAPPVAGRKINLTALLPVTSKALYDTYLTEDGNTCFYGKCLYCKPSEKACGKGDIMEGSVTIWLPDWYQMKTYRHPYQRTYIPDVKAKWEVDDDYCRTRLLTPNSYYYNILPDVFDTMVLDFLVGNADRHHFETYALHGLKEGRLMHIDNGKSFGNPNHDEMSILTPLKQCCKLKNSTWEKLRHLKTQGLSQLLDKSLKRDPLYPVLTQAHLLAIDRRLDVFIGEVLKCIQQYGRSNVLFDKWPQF

[4] = target: T4, human Fam20B (hsFam20B) (Homo sapiens, UniProt O75063); assay: as above; assay type: biochemical; conditions: 100 uM Gal-Xyl-benzyl, 100 uM ATP, 10 mM MnCl2, pH 7.5, 30 °C
T4 construct: residues 55-402, His6-MBP fusion secreted from High Five insect cells, Ni-NTA; monomer
T4 sequence (O75063 55-402): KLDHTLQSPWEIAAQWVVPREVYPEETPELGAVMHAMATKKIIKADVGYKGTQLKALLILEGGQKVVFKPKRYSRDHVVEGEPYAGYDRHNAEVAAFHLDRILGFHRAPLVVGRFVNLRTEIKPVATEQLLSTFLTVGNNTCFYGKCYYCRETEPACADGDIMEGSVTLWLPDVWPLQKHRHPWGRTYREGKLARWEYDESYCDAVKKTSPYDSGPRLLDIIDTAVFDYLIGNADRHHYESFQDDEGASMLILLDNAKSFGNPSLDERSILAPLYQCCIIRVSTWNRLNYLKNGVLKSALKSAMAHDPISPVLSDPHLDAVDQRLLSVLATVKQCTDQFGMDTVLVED

[5] = target: T5, hmFam20 (Hydra vulgaris, UniProt A0ABM4BCH6); assay: X-ray crystal structure, […] Å; conditions: co-crystallised with 2 mM Gal-Xyl-benzyl, 5 mM AMP-PNP, 10 mM MgCl2, pH 6.9; pocket next to the ATP-binding site; also phosphorylated by this enzyme (Figure 5b)
T5 construct: gene LOC100203383; residues 55-415, codon-optimized synthetic gene, High Five cells; for crystals His6-MBP removed with TEV and N-glycans trimmed with endoglycosidase F3; monomer
T5 sequence (A0ABM4BCH6 entry or part of it): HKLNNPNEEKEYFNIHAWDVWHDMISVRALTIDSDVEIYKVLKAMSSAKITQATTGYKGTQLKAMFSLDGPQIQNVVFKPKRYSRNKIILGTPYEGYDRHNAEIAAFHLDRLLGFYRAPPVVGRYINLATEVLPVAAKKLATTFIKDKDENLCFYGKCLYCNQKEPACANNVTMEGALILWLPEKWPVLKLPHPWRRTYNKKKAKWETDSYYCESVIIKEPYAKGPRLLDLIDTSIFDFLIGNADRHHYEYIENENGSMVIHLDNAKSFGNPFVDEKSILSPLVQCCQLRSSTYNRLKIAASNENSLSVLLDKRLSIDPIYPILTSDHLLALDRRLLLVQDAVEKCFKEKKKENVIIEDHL

[6] = target: T6, human Fam20B (hsFam20B) (Homo sapiens, UniProt O75063, K312R); assay: […] incorporation from [γ-32P]ATP, Sep-Pak C18, scintillation counting; assay type: biochemical; conditions: 100 uM Gal-Xyl-benzyl, 100 uM ATP, 10 mM MnCl2, pH 7.5, 30 °C; mutant activity completely abolished
T6 construct: residues 55-402, His6-MBP fusion secreted from High Five insect cells, Ni-NTA; monomer
T6 sequence (O75063 55-402 K312R): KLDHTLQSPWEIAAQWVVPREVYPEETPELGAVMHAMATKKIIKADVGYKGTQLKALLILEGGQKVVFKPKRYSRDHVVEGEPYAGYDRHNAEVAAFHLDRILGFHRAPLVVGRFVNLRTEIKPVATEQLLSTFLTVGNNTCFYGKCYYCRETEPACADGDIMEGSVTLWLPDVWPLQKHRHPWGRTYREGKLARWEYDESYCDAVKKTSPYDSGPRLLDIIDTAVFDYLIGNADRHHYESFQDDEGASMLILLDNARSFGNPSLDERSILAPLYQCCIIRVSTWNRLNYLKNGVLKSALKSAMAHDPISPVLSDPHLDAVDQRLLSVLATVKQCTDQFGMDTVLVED

[7] = target: the molecule itself; assay: not stated; ceFam20 (WT or F260A/P263G) in solution (Supplementary Fig. 3C)

Nc1ncnc2c1ncn2[C@@H]1O[C@H](COP(=O)(O)OP(=O)(O)OP(=O)(O)O)[C@@H](O)[C@H]1O [ATP]
X-ray crystal structure, 3.30 Å [1]: In both structures, an ATP molecule (ATP-1) is bound to Fam20A in an inverted orientation | X-ray crystal structure, 3.55 Å [2]: In both structures, an ATP molecule (ATP-1) is bound to Fam20A in an inverted orientation

OC[C@H]1O[C@@H](O[C@@H]2CO[C@@H](OCc3ccccc3)[C@H](O)[C@H]2O)[C@H](O)[C@@H](O)[C@H]1O [Gal-Xyl, Galβ1-4Xylβ1-O-benzyl]
32P incorporation from [γ-32P]ATP, Sep-Pak C18, scintillation counting [3]: sponge (aqFam20) and hydra (hmFam20) phosphorylate the Gal-Xyl disaccharide | 32P incorporation from [γ-32P]ATP, Sep-Pak C18, scintillation counting [4]: phosphorylate the Gal-Xyl disaccharide with efficiencies similar to human Fam20B (hsFam20B) | X-ray crystal structure, 2.85 Å [5]: we also determined the structure of hmFam20 in complex with Gal-Xyl | 32P incorporation from [γ-32P]ATP, Sep-Pak C18, scintillation counting [6]: in human Fam20B (K312R, Fig. 6c) completely abolishes kinase activity

B1: ceFam20 (Fam20C ortholog of Caenorhabditis elegans) (enzyme)
chain: SLPHQPIPPSLGEKDLSDPFNFLFSSNKITLRKLYDLTKNVDFDQLRQNECKKNITLSKFWEKSEQRNVPEDDNWERFYSNIGSCSVYSDDQMIDNLLHDLNTSPIKHVHIMDGGTQVKFVFTFKNDKQAVFKPMRFGRDYESDPNHFYFSDFERHHAEIATFHLDRVLGFRRAIPTVGRVLNMTTELFEKAEKKLKKTFFFSPAKNFCFVSRCDYYCDTTHAICGLPDMKEGSVQVFLPDESAVPRKHNRSPYRRTYSKKNQVAEWQSSMNYCTDKVKTKRQYAHGRRLLDLVDIHILDYLIGNQDRHHFESFNVFNDLPSYAIHLDHGRAFGRSDFDDDDIILPLRQCCILRPSTFQTLMNFYSTPKSLTKALHESLSKDPAHPILAYKHYPAMERRLAKIMSHILECFESRGVAEVLVAEYNNPDVSDAEQNDEEQSEEHQDKKDDKKTV
notes: C. elegans Fam20 (ceFam20)
stoichiometry N [7]: 2
